Source: publication PMC12446458, “Structural basis for DNA break sensing by human MRE11-RAD50-NBS1 and its regulation by telomeric factor TRF2” (Nature Communications, 2025)

T1: MRN complex (human MRE11-RAD50-NBS1) (Homo sapiens, UniProt Q92878)
T1 construct: Expi293F (MRE11 H129N) or Hi5 insect cells (wild type); with Double-strand break repair protein MRE11; Nibrin
T1 sequence (Q92878 1-1312): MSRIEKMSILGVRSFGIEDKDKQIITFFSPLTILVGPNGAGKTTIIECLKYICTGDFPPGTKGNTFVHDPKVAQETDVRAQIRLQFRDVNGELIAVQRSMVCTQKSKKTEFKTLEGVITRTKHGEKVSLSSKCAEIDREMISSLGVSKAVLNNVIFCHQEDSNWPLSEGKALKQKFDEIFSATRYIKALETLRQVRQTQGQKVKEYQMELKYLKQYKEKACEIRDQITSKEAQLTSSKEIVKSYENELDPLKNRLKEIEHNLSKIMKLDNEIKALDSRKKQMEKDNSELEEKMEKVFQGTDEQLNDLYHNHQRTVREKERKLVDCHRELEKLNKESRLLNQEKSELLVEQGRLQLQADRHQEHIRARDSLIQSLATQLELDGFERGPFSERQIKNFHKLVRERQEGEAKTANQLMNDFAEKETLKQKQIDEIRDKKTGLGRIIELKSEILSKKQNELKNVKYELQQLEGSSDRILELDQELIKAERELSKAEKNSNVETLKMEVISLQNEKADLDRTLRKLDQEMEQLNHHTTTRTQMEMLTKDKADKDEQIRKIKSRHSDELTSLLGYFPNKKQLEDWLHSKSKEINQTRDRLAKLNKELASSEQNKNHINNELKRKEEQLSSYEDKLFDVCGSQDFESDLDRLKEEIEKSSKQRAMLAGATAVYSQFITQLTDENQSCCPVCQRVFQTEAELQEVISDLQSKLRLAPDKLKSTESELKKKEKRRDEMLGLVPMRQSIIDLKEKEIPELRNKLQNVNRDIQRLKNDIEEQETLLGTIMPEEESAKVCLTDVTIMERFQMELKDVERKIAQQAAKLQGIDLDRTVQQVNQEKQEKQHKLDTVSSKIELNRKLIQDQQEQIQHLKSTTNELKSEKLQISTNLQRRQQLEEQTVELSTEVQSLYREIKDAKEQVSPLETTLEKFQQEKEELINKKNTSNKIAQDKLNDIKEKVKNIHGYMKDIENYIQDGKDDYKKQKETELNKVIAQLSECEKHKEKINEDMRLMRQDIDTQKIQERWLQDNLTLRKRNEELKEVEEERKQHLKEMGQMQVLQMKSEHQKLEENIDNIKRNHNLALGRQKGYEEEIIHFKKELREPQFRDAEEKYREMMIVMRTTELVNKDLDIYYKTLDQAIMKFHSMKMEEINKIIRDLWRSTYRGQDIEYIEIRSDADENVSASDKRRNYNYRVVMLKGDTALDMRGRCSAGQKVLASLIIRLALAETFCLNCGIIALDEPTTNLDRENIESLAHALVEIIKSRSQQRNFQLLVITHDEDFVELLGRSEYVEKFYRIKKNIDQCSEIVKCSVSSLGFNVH
T1 sequence (P49959 2-708 partner): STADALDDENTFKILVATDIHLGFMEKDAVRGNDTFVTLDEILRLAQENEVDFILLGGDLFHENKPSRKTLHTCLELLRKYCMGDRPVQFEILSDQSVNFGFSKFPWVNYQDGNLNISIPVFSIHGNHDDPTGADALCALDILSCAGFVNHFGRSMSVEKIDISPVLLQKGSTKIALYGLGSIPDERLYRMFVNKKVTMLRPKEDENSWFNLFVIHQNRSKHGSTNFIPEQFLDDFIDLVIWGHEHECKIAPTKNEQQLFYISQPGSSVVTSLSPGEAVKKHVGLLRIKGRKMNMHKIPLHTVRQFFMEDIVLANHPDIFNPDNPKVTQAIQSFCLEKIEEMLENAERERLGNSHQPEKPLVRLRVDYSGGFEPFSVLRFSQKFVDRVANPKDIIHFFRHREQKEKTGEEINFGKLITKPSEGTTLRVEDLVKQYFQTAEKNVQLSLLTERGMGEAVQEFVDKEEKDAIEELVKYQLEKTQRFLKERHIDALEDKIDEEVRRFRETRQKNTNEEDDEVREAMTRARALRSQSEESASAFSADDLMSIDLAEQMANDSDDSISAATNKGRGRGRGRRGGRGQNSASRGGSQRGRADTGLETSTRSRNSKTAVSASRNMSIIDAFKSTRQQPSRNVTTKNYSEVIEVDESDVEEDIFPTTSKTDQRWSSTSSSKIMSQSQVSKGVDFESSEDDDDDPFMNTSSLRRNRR
T1 sequence (O60934 1-754 partner): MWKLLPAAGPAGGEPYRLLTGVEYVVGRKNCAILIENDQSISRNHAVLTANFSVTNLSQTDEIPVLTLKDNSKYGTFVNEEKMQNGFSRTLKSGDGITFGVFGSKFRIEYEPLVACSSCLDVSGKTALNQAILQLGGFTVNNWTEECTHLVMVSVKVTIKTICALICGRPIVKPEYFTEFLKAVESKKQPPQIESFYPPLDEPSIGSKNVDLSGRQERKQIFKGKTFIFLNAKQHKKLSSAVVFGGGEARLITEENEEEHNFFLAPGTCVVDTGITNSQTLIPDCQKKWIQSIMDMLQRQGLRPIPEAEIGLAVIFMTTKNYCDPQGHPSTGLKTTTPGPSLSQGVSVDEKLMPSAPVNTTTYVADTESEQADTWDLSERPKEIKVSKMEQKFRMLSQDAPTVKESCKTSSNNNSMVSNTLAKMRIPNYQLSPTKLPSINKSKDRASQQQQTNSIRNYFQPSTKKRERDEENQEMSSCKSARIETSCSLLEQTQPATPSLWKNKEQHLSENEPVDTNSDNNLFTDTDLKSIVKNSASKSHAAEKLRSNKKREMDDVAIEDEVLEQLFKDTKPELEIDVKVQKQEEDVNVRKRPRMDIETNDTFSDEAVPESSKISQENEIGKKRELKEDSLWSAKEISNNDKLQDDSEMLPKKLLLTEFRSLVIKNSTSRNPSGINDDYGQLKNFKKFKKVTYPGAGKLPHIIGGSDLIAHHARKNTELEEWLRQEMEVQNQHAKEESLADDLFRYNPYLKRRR

T2: MR complex (human MRE11-RAD50) (Homo sapiens, UniProt Q92878)
T2 construct: MR complex, no NBS1; with Double-strand break repair protein MRE11
T2 sequence (Q92878 1-1312): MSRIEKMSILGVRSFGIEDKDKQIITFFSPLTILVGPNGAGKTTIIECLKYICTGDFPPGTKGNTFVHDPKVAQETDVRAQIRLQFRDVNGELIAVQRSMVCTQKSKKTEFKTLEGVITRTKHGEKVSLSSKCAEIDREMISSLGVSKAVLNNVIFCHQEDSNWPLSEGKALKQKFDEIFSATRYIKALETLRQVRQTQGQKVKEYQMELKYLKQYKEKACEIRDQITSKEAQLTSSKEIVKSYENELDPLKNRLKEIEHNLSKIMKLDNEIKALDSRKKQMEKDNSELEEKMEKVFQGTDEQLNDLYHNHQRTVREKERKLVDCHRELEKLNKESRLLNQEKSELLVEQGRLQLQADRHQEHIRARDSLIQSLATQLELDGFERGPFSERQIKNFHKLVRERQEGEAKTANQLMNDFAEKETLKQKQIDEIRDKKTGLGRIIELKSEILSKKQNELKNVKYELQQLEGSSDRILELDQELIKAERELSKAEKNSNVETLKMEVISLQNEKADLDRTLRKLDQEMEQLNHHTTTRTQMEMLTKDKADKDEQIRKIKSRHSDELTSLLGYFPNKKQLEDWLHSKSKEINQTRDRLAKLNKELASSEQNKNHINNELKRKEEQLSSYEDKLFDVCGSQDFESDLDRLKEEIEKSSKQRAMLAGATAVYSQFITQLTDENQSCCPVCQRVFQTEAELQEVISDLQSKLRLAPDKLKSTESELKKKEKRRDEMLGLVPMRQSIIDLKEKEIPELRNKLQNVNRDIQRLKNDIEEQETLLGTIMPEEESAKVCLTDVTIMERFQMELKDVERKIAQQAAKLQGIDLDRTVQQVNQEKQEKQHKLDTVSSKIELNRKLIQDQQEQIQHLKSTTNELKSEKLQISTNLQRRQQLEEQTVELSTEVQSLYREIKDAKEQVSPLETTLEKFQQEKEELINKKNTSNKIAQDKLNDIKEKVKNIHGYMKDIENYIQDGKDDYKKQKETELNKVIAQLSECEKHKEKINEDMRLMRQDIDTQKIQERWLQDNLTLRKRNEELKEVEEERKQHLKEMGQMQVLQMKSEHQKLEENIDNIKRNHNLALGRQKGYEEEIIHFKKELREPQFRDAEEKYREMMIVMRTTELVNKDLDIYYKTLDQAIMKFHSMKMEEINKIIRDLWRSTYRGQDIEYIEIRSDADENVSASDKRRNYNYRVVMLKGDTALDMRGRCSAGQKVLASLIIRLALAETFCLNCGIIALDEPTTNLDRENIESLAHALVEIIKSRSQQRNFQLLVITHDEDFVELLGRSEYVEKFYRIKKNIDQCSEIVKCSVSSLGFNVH
T2 sequence (P49959 2-708 partner): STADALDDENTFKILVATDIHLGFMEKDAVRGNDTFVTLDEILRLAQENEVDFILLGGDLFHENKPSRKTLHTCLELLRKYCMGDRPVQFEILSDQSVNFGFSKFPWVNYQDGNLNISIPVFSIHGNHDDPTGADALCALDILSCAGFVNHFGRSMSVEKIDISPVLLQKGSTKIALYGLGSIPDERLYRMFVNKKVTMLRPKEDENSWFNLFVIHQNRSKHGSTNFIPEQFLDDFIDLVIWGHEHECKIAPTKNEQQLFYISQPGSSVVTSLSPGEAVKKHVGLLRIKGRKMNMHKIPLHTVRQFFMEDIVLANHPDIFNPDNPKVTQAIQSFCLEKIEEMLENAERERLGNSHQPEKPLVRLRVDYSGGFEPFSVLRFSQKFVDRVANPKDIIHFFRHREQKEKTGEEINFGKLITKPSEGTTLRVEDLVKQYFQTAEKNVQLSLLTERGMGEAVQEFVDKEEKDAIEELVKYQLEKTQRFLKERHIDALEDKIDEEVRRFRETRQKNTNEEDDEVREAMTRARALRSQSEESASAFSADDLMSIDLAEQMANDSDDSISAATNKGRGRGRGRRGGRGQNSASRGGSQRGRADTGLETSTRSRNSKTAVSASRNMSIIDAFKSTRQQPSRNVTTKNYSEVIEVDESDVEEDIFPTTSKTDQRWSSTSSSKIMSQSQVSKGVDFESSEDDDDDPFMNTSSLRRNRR


Tests used:
[1] = molecular target: T1, MRN complex (human MRE11-RAD50-NBS1); test: NADH-coupled ATPase assay; format: biochemical; conditions: 0.15 mM ATP, 2 mM MgCl2, 1 mM MnCl2, pH 7.5, 37 °C; with and without 64 bp Myb DNA; rate in figure only; MRE11 wild type or H129N not clearly told for this assay
[2] = molecular target: T2, MR complex (human MRE11-RAD50); test: NADH-coupled ATPase assay; format: biochemical; conditions: 0.15 mM ATP, 2 mM MgCl2, 1 mM MnCl2, pH 7.5, 37 °C; with and without 64 bp Myb DNA; rate in figure only
TRF2 full length = TRF2 full length (Homo sapiens, UniProt Q15554 1-542); test: fluorescence anisotropy; 1 mM ATP, 5 mM Mg2+; two specific binding sites fit; FA: 25 mM HEPES pH 8.0, 100 mM NaCl, 5 mM MgCl2, 0.2 mg/ml BSA, 1 mM DTT, 1 mM ATP unless stated, 30 nM 6-FAM DNA, read over 30 min; temperature not stated; conditions: protein: recombinant; tags: MBP removed (3C); C-terminal His10; chain copies: 2; blunt
Chain of TRF2 full length (Q15554 whole entry): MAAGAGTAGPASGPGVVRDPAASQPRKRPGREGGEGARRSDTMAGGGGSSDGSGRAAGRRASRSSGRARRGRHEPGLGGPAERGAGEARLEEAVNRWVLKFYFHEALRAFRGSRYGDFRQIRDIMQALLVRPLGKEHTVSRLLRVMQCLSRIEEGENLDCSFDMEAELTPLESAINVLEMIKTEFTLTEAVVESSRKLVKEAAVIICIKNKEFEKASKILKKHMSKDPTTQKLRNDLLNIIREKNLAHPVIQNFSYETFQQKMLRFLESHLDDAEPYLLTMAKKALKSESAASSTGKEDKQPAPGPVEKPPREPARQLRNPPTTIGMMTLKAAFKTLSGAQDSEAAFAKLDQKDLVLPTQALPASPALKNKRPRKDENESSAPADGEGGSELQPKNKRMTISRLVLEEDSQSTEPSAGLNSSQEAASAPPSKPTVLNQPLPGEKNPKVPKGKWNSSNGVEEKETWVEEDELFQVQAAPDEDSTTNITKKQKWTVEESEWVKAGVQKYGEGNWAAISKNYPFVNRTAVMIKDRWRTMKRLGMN

Molecule | NADH-coupled ATPase assay [1] | NADH-coupled ATPase assay [2] | Kd (TRF2 full length) [nM]
Nc1ncnc2c1ncn2[C@@H]1O[C@H](COP(=O)(O)OP(=O)(O)OP(=O)(O)O)[C@@H](O)[C@H]1O [ATP] | The purified MRN complex showed the characteristic DNA-stimulated ATPase activity | ATPase activity of MR(N) complex stimulated by DNA binding | –
64 bp Myb DNA, 6-FAM (dsDNA) DNA 1: TCTAGGGTTAGGGTTAGATTAACGCTTCTGGAGAAACTCAACGAGCTCTAACCCTAACCCTAGA DNA 2: TCTAGGGTTAGGGTTAGAGCTCGTTGAGTTTCTCCAGAAGCGTTAATCTAACCCTAACCCTAGA | – | – | 121
